In the supplement of paper PMC10307832:

What was measured:
Experiment in all cases: relative viability (nuclei count vs DMSO), 5 days (fraction); higher = more cells survive
[1] = compound: Cn1cc(-c2cnn3c(N)c(Br)c([C@@H]4CCCNC4)nc23)cn1 + Cc1cc(Nc2cc(N3CCN(C)CC3)nc(Sc3ccc(NC(=O)C4CC4)cc3)n2)n[nH]1 [Tozasertib] (partner 0.1 µM)
In short: (§1)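 After 5 days of treatment, lung cancer cells in 1536-well plates were fixed and stained in a single step (final 0.05% Triton X-100, 1% formaldehyde, 1 ug/ml Hoechst) and their nuclei counted on 4× images. Treatment had been applied by pin tool the day after seeding as one drug alone or as a fixed anchor-drug dose with five library-drug doses (not always all listed) in √10 steps. Relative viability is the nuclei count of treated wells divided by that of vehicle wells, and values are medians of duplicate plates.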

[2] = compound: Cn1cc(-c2cnn3c(N)c(Br)c([C@@H]4CCCNC4)nc23)cn1 + Cc1nc(Nc2ncc(C(=O)Nc3c(C)cccc3Cl)s2)cc(N2CCN(CCO)CC2)n1 [Dasatinib] (partner 0.075 µM)
In short: as §1

[3] = compound: Cn1cc(-c2cnn3c(N)c(Br)c([C@@H]4CCCNC4)nc23)cn1 + Cc1nc(NC(=O)N2CCC[C@H]2C(N)=O)sc1-c1ccnc(C(C)(C)C(F)(F)F)c1 [Alpelisib] (partner 2 µM)
In short: as §1

[4] = compound: Cn1cc(-c2cnn3c(N)c(Br)c([C@@H]4CCCNC4)nc23)cn1 + CCNC(=O)c1noc(-c2cc(C(C)C)c(O)cc2O)c1-c1ccc(CN2CCOCC2)cc1 [Luminespib] (partner 0.01 µM)
In short: as §1

Cell Line	relative viability ([1]; first compound 0.05 µM)	relative viability ([1]; first compound 0.1581 µM)	relative viability ([1]; first compound 0.5 µM)	relative viability ([1]; first compound 1.581 µM)	relative viability ([1]; first compound 5 µM)	relative viability ([2]; first compound 0.05 µM)	relative viability ([2]; first compound 0.1581 µM)	relative viability ([2]; first compound 0.5 µM)	relative viability ([2]; first compound 1.581 µM)	relative viability ([2]; first compound 5 µM)	relative viability ([3]; first compound 0.05 µM)	relative viability ([3]; first compound 0.1581 µM)	relative viability ([3]; first compound 0.5 µM)	relative viability ([3]; first compound 1.581 µM)	relative viability ([3]; first compound 5 µM)	relative viability ([4]; first compound 0.05 µM)	relative viability ([4]; first compound 0.1581 µM)	relative viability ([4]; first compound 0.5 µM)	relative viability ([4]; first compound 1.581 µM)	relative viability ([4]; first compound 5 µM)
NCI-H358	0.0994	0.103	0.0971	0.0967	0.117	0.131	0.155	0.156	0.167	0.148	0.957	0.766	0.852	0.518	0.78	0.546	0.281	0.437	0.261	0.152
NCI-H441	0.922	0.777	0.651	0.675	0.657	0.589	0.736	0.476	0.487	0.601	0.859	1.15	0.856	–	0.852	0.373	0.348	0.31	0.254	0.302
NCI-H460	0.421	0.482	0.537	0.475	0.222	0.533	0.437	0.483	0.317	0.144	0.59	0.459	0.509	0.155	0.0851	0.0336	0.0269	0.0266	0.0285	0.0325
NCI-H520	0.471	0.397	0.41	0.444	0.342	0.178	0.258	0.191	0.176	0.165	0.86	0.887	0.763	0.64	0.785	0.207	0.206	0.217	0.219	0.221
NCI-H596	1.02	1.08	0.719	0.857	0.562	0.668	0.549	0.552	0.545	0.589	0.939	0.498	0.47	0.494	0.478	0.992	0.971	0.965	0.894	0.716
NCI-H647	0.329	0.312	0.0065	0.182	0.173	0.212	0.326	0.143	0.12	0.123	1.16	1	1.05	0.331	0.444	0.232	0.262	0.127	0.106	0.104
NCI-H650	0.732	0.753	0.821	0.654	0.603	0.439	0.409	0.451	0.474	0.422	1.16	1.22	1.23	1.05	0.858	0.807	0.872	0.749	0.811	0.345
NCI-H661	0.344	0.343	0.371	0.372	0.379	0.898	0.962	0.891	0.82	0.432	0.596	0.611	0.521	0.667	0.297	0.953	0.953	0.991	0.829	0.729
NCI-H727	0.695	0.489	0.806	0.503	0.468	0.29	0.292	0.333	0.403	0.287	0.575	0.535	0.534	0.412	0.361	0.345	0.412	0.315	0.354	0.343
NCI-H838	0.272	0.244	0.312	0.264	0.19	0.196	0.298	0.277	0.284	0.254	1.08	1.16	0.94	0.784	1.02	0.346	0.252	0.261	0.225	0.222
NCI-H1355	0.553	0.614	0.509	0.45	0.423	0.705	0.705	0.596	0.652	0.566	0.797	0.875	0.819	0.849	0.825	0.691	0.662	0.699	0.609	0.735
NCI-H1395	0.804	0.68	0.789	0.543	0.436	0.397	0.463	0.399	0.368	0.351	1.18	0.685	0.874	0.66	0.435	0.762	0.536	0.687	0.349	0.379
NCI-H1437	0.414	0.46	0.402	0.361	0.381	0.389	0.39	0.4	0.298	0.343	1.05	1.02	0.795	0.576	0.761	1.13	1.2	1.19	0.932	0.861
NCI-H1651	0.586	0.721	0.641	0.429	0.176	0.348	0.447	0.551	0.224	0.149	1.08	1	1.01	0.479	0.434	0.721	0.767	0.848	0.327	0.195
NCI-H1666	0.608	0.589	0.606	0.522	0.511	0.818	0.734	0.642	0.756	0.785	1.02	1.01	0.853	0.807	0.785	0.971	1.02	0.906	0.958	0.917
NCI-H1734	0.214	0.25	0.284	0.213	0.211	0.469	0.506	0.435	0.345	0.338	0.708	0.695	0.626	0.596	0.58	0.197	0.185	0.201	0.178	0.149

Cell Line	relative viability ([1]; first compound 0.05 µM)	relative viability ([1]; first compound 0.1581 µM)	relative viability ([1]; first compound 0.5 µM)	relative viability ([1]; first compound 1.581 µM)	relative viability ([1]; first compound 5 µM)	relative viability ([2]; first compound 0.05 µM)	relative viability ([2]; first compound 0.1581 µM)	relative viability ([2]; first compound 0.5 µM)	relative viability ([2]; first compound 1.581 µM)	relative viability ([2]; first compound 5 µM)	relative viability ([3]; first compound 0.05 µM)	relative viability ([3]; first compound 0.1581 µM)	relative viability ([3]; first compound 0.5 µM)	relative viability ([3]; first compound 1.581 µM)	relative viability ([3]; first compound 5 µM)	relative viability ([4]; first compound 0.05 µM)	relative viability ([4]; first compound 0.1581 µM)	relative viability ([4]; first compound 0.5 µM)	relative viability ([4]; first compound 1.581 µM)	relative viability ([4]; first compound 5 µM)
NCI-H1755	0.715	0.619	0.648	0.54	0.489	0.4	0.42	0.42	0.407	0.253	1.03	1.05	0.817	0.873	0.879	0.465	0.534	0.394	0.562	0.194
NCI-H1793	0.39	0.806	0.282	0.341	0.2	0.449	0.416	0.306	0.385	0.184	0.773	0.878	0.709	0.666	0.58	0.211	0.815	0.233	0.172	0.152
NCI-H1915	0.47	0.493	0.44	0.359	0.411	0.307	0.351	0.355	0.347	0.283	1.01	1.08	1.03	1.08	1.1	0.987	0.86	0.722	0.667	0.695
NCI-H1944	0.263	0.273	0.255	0.241	0.21	0.23	0.206	0.197	0.192	0.179	0.808	0.797	0.825	0.717	0.626	0.705	0.671	0.706	0.635	0.344
NCI-H1975	0.868	0.757	0.63	0.532	0.51	0.393	0.355	0.409	0.331	0.346	0.685	0.681	0.655	0.404	0.525	0.105	0.197	0.256	0.139	0.167
NCI-H1993	0.62	0.602	0.463	0.513	0.538	0.619	0.601	0.545	0.549	0.507	0.632	0.7	–	0.66	0.708	1.03	0.887	0.543	0.666	0.567
NCI-H2009	0.745	0.702	0.651	0.565	0.448	0.3	0.291	0.257	0.219	0.216	1.17	1.25	1.09	1.09	0.849	1.04	1.09	0.98	0.962	0.889
NCI-H2023	0.361	0.254	0.238	0.15	0.122	0.616	0.513	0.427	0.225	0.156	0.494	0.497	0.48	0.3	0.193	0.873	0.305	0.234	0.167	0.123
NCI-H2085	0.807	0.928	0.866	0.811	0.736	0.239	0.235	0.229	0.24	0.203	1.01	1.04	0.955	0.868	0.769	0.4	0.477	0.461	0.417	0.339
NCI-H2087	0.222	0.253	0.241	0.263	0.174	0.856	0.936	1.09	0.835	0.809	1.29	1.17	1.21	0.98	0.938	0.143	0.168	0.192	0.151	0.175
NCI-H2126	0.809	0.819	0.774	0.611	0.644	0.581	0.58	0.568	0.506	0.488	0.824	0.788	0.768	0.729	0.757	0.755	0.964	0.983	0.608	0.595
NCI-H2170	0.78	0.789	0.644	0.894	0.855	0.713	0.541	0.524	0.551	0.446	0.865	0.764	0.654	0.705	0.88	0.837	0.561	0.799	0.931	0.422
NCI-H2228	0.249	0.221	0.205	0.211	0.124	0.572	0.66	0.459	0.294	0.241	0.794	1.15	0.87	0.541	0.372	0.138	0.132	0.212	0.124	0.112
NCI-H2347	0.539	0.563	0.518	0.49	0.44	0.319	0.255	0.285	0.324	0.209	0.974	1.19	0.959	0.957	0.812	0.506	0.677	0.473	0.409	0.297
NCI-H2405	0.733	0.784	0.723	0.743	0.498	0.21	0.458	0.205	0.201	0.203	0.816	0.753	0.814	0.777	0.542	0.717	0.858	0.705	0.73	0.439
NCI-H3122	0.508	0.403	0.401	0.283	0.329	0.905	0.833	0.614	0.84	0.64	0.79	0.856	0.806	0.717	0.869	0.0947	0.0737	0.0857	0.0666	0.12
